Test results from ChEMBL document CHEMBL3525899, “Identification of the cytochrome P450 and other enzymes involved in the in vitro oxidative metabolism of a novel antidepressant, Lu AA21004” (Drug Metab Dispos, 2012).

Key:
Liver microsome [1] = assay: Drug metabolism in pooled human liver microsomes assessed as formation of 4-(2-(2,4-dimethylphenylthio)phenyl)piperazin-1-ol at 100 uM after 30 to 180 mins by HPLC/MS-MS analysis in presence of NADPH regenerating system with NADP+; format: ADME
Liver microsome [2] = assay: Drug metabolism in phenotyped human liver microsomes assessed as formation of 3-(2,4-dimethylphenylthio)-4-(piperazin-1-yl)phenol at 8 to 50 uM after 60 mins by HPLC/MS-MS analysis in presence of NADPH regenerating system with NADP+; format: ADME; conditions: 1 h
Cytochrome P450 2C9 [3] = biological target: T1, Cytochrome P450 2C9 (Homo sapiens, UniProt P11712); assay: Activity of human recombinant CYP2C9 expressed in microsomes isolated from human AHH-1 cells assessed as enzyme-mediated (3-methyl-4-(2-(piperazin-1-yl)phenylthio)phenyl)methanol formation at 8 to 50 uM after 120 mins by HPLC/MS-MS analysis in presence of NADPH regenerating system with NADP+; format: ADME, cell-free; conditions: 2 h
T1 sequence (P11712 whole entry): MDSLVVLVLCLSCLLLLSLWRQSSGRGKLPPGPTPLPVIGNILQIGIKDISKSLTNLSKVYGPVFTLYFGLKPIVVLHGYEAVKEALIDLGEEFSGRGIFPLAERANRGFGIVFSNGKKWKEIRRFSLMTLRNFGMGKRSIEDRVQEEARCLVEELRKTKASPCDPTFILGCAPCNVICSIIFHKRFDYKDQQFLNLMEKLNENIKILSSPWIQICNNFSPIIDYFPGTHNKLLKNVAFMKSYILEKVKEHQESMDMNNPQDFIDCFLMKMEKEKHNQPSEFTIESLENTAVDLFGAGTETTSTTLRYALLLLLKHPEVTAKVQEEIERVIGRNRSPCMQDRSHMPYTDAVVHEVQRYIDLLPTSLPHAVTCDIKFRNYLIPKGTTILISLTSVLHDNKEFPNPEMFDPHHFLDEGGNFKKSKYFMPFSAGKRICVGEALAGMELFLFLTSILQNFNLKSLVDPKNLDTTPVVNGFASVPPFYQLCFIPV

Cytochrome P450 2D6 = Cytochrome P450 2D6 (Homo sapiens, UniProt P10635); assay: Activity of human recombinant CYP2D6 expressed in microsomes isolated from human AHH-1 cells assessed as enzyme-mediated 3-(2,4-dimethylphenylthio)-4-(piperazin-1-yl)phenol formation at 8 to 50 uM after 120 mins by HPLC/MS-MS analysis in presence of NADPH regenerating system with NADP+; format: ADME, cell-free; conditions: 2 h
Cytochrome P450 2D6, sequence (P10635 whole entry): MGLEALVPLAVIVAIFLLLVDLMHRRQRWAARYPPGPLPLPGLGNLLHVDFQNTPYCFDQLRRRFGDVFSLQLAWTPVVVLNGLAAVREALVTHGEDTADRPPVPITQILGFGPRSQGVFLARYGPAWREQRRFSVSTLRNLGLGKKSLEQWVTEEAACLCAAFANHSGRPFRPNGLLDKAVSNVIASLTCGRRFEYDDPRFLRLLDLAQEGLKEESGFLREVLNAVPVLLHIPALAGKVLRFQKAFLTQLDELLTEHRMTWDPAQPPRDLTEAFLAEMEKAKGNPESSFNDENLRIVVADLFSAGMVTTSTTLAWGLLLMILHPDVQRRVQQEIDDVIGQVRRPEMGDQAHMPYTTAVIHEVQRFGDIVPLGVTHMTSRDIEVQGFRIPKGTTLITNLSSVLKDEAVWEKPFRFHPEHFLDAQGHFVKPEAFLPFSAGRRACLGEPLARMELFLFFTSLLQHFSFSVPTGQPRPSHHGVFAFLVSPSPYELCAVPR

Cytochrome P450 2C9 [4] = biological target: T1, Cytochrome P450 2C9; assay: Activity of human recombinant CYP2C9 expressed in microsomes isolated from human AHH-1 cells assessed as enzyme-mediated 3-(2,4-dimethylphenylthio)-4-(piperazin-1-yl)phenol formation at 8 to 50 uM after 120 mins by HPLC/MS-MS analysis in presence of NADPH regenerating system with NADP+; format: ADME, cell-free; conditions: 2 h
Cytochrome P450 2C19 = Cytochrome P450 2C19 (Homo sapiens, UniProt P33261); assay: Activity of human recombinant CYP2C19 expressed in microsomes isolated from human AHH-1 cells assessed as enzyme-mediated 4-(2-(2,4-dimethylphenylthio)phenyl)piperazin-1-ol formation at 8 to 50 uM after 120 mins by HPLC/MS-MS analysis in presence of NADPH regenerating system with NADP+; format: ADME, cell-free; conditions: 2 h
Cytochrome P450 2C19, sequence (P33261 whole entry): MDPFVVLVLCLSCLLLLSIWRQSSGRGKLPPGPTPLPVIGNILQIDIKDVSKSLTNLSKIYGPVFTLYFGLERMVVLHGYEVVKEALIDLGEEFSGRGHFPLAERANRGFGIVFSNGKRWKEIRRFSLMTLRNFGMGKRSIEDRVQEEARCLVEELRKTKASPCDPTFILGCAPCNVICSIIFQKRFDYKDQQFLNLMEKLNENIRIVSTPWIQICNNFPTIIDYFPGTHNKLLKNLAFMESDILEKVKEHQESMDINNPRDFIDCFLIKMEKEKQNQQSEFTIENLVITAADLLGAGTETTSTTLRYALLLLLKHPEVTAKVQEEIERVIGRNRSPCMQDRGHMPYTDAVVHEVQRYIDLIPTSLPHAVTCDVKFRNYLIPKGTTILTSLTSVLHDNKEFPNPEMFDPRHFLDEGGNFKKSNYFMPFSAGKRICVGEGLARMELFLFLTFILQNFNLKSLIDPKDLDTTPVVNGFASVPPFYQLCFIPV

Liver microsome [5] = assay: Intrinsic clearance in pooled human liver microsomes assessed as Vmax(app)/Km(app) for formation of (3-methyl-4-(2-(piperazin-1-yl)phenylthio)phenyl)methanol per mg of protein after 30 mins by Michaelis-Menten plot analysis in presence of NADPH regenerating system with NADP+; format: ADME; conditions: 0.5 h
Liver microsome [6] = assay: Drug metabolism in phenotyped human liver microsomes assessed as formation of 4-(2-(2,4-dimethylphenylthio)phenyl)piperazin-1-ol at 8 to 50 uM after 60 mins by HPLC/MS-MS analysis in presence of NADPH regenerating system with NADP+; format: ADME; conditions: 1 h
Cytochrome P450 2C8 = biological target: T2, Cytochrome P450 2C8 (Homo sapiens, UniProt P10632); assay: Activity of human recombinant CYP2C8 expressed in microsomes isolated from human AHH-1 cells assessed as enzyme-mediated 1-(2-(2,4-dimethylphenylsulfinyl)phenyl)piperazine formation at 8 to 50 uM after 120 mins by HPLC/MS-MS analysis in presence of NADPH regenerating system with NADP+; format: ADME, cell-free; conditions: 2 h
T2 sequence (P10632 whole entry): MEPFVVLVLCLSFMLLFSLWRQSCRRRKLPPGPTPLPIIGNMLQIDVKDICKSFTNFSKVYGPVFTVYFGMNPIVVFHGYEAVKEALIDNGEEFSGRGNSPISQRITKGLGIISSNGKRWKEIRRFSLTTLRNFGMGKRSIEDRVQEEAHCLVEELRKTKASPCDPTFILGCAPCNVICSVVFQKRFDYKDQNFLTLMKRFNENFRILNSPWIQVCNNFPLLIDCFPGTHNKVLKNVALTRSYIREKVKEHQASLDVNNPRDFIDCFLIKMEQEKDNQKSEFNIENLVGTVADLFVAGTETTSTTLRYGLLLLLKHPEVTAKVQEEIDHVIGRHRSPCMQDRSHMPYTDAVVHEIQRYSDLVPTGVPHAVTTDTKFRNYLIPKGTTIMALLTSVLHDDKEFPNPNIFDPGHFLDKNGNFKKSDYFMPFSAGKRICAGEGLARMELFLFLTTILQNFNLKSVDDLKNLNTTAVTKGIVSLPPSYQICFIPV

[7] = biological target: T3, Flavin-containing monooxygenase 3 (Homo sapiens, UniProt P31513); assay: Activity of human recombinant FMO3 expressed in microsomes isolated from baculovirus infected insect BTI-TN-5B1-4 cells assessed as enzyme-mediated 3-methyl-4-(2-(piperazin-1-yl)phenylthio)phenyl)methanol formation at 8 to 50 uM after 120 mins by HPLC/MS-MS analysis in presence of NADPH regenerating system with NADP+; format: ADME; conditions: 2 h
T3 sequence (P31513 whole entry): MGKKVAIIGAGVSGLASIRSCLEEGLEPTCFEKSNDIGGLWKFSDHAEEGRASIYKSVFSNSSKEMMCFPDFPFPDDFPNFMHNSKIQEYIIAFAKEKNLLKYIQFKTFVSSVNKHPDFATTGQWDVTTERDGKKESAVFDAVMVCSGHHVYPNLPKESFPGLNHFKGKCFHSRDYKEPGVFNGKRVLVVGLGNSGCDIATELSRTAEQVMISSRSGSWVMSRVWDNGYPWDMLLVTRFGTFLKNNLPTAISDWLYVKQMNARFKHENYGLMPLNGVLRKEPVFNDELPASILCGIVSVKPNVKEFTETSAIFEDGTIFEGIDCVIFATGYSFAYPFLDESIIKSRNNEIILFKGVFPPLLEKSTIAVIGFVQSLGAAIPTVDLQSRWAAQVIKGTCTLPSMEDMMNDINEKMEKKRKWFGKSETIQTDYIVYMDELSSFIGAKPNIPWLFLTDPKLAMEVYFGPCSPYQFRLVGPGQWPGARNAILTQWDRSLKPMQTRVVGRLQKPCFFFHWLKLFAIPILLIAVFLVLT

Liver microsome [8] = assay: Drug metabolism in pooled human liver microsomes assessed as formation of 3-(2,4-dimethylphenylthio)-4-(piperazin-1-yl)phenol after 30 mins by Michaelis-Menten plot analysis in presence of NADPH regenerating system with NADP+; format: ADME; conditions: 0.5 h, read-out: Km(app)
Cytochrome P450 2E1 = Cytochrome P450 2E1 (Homo sapiens, UniProt P05181); assay: Activity of human recombinant CYP2E1 expressed in microsomes isolated from human AHH-1 cells assessed as enzyme-mediated 3-(2,4-dimethylphenylthio)-4-(piperazin-1-yl)phenol formation at 8 to 50 uM after 120 mins by HPLC/MS-MS analysis in presence of NADPH regenerating system with NADP+; format: ADME, cell-free; conditions: 2 h
Cytochrome P450 2E1, sequence (P05181 whole entry): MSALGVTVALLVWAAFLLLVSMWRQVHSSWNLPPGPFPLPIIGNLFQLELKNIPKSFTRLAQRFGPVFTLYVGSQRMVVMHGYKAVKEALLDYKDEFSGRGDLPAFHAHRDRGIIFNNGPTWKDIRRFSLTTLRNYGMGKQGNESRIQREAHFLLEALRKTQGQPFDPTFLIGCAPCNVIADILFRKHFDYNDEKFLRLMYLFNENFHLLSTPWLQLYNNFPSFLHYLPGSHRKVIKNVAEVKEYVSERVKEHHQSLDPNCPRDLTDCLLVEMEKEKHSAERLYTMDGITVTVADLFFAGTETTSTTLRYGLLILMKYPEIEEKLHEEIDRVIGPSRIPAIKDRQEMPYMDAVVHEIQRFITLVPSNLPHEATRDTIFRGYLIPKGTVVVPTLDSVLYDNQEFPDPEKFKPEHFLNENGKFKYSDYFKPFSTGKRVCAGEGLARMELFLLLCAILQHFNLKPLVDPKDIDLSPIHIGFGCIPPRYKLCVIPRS

Liver microsome [9] = assay: Drug metabolism in pooled human liver microsomes assessed as formation of (3-methyl-4-(2-(piperazin-1-yl)phenylthio)phenyl)methanol at 100 uM after 30 to 180 mins by HPLC/MS-MS analysis in presence of NADPH regenerating system with NADP+; format: ADME
Liver microsome [10] = assay: Drug metabolism in pooled human liver microsomes at 100 uM after 30 to 180 mins by HPLC/MS-MS analysis in absence of NADPH regenerating system with NADP+; format: ADME

SMILES: Br.Cc1ccc(Sc2ccccc2N2CCNCC2)c(C)c1 [VORTIOXETINE HYDROBROMIDE]
- Drug metabolism (Liver microsome [1]): metabolite_detected
- Drug metabolism (Liver microsome [2]): metabolite_detected
- Drug metabolism (Cytochrome P450 2C9 [3]): metabolite_detected
- Drug metabolism (Cytochrome P450 2D6): metabolite_detected
- Drug metabolism (Cytochrome P450 2C9 [4]): metabolite_detected
- Drug metabolism (Cytochrome P450 2C19): metabolite_detected
- Vmax/Km (Liver microsome [5]): 1.13 µL/min
- Drug metabolism (Liver microsome [6]): metabolite_detected
- Drug metabolism (Cytochrome P450 2C8): metabolite_detected
- Drug metabolism [7]: metabolite_not_detected
- Km (Liver microsome [8]): 323 µM
- Drug metabolism (Cytochrome P450 2E1): metabolite_not_detected
- Drug metabolism (Liver microsome [9]): metabolite_detected
- Drug metabolism (Liver microsome [10]): metabolite_not_detected
